System: human peripheral blood lymphocytes
Test: CBMN cytome assay: micronuclei, nuclear buds, nucleoplasmic bridges
Conditions: 3 h
[1] = 1× + IRI 9.0 mg/L, propolis 1.36 mg/L, galangin 0.02 mg/L
[2] = 1× alone, propolis 1.36 mg/L, galangin 0.02 mg/L
[3] = 5× + IRI 9.0 mg/L, propolis 6.8 mg/L, galangin […]
[4] = 5× alone, propolis 6.8 mg/L, galangin […]
[5] = 10× + IRI 9.0 mg/L, propolis 13.6 mg/L, galangin 0.22 mg/L
[6] = 10× alone, propolis 13.6 mg/L, galangin 0.22 mg/L

Description: The CBMN assay was performed in line with standard protocols [8, 23].
To collect the blood sample, lithium heparin-coated tubes were used (BD vacutainer® with LH 170 I.U., Becton Dickinson: BD-Plymouth PL6 78P, UK).
There were 15 experimental groups altogether. The same experimental design was applied in two independent trials, each of which had two replicate cultures per experimental group; therefore, four replicate cultures for every single experimental group were established.
To induce cell division prior to exposure to the test chemicals, lymphocytes were stimulated with the mitogen phytohemagglutinin (PHA). Cultures were kept in a humidified atmosphere of 5% CO2 at 37 °C.
They started 41 h after PHA stimulation and lasted for 3 h at 37 °C.
Upon completion of exposure, lymphocyte cultures were centrifuged at 100× g. […] This procedure was timed for the 44th hour of lymphocyte cultivation, which represents a critical point for adding of cytoB to hinder cytokinesis and obtain binucleated cells. All treated and control cultures were further maintained at 37 °C until the end of the 72nd hour of cultivation, according to the above-mentioned standard protocols.
The first step in the preparation of microscopic slides was harvesting of cells by centrifugation (100× g), followed by treatment with 0.075 mol/L potassium chloride and succeeded by centrifugation. The sediments of cells were repeatedly fixed with methanol/acetic acid (3:1 v/v) followed by centrifugation. The final lymphocyte suspension was pipetted onto clean microscope slides. For staining, 5% aqueous solution of Giemsa dye was used. Slides were screened using a light microscope at 1000× magnification. For morphological discrimination of micronuclei (MNi), nuclear buds (NBs), nucleoplasmic bridges (NPBs) and cells in apoptosis or necrosis, the criteria by Fenech et al. [25] and Fenech [23] were applied. To determine their frequencies, per experimental point, a total of 4 × 1000 binucleated (BN) cells were scored.
This value was first used to estimate the number of MNi required to reach a decrease and an increase considered significant at a 5% significance level.

**Q.** What does the source list for `O=c1c(O)c(-c2ccccc2)oc2cc(O)cc(O)c12` [Galangin]?
**A.** Distribution of BNMN Cells with 1 MN [1]: 45 c,p1,p5,p10,g1,g5,g10,p1+iri, p5+iri, p10+iri; Distribution of BNMN Cells with 2 MN [1]: 1; Distribution of BNMN Cells with 3 MN [1]: 0; Distribution of BNMN Cells with 4 MN [1]: 0; Distribution of BNNB Cells with 1 NB [1]: 33 c,p1,p5, p10,g1,g5,g10, p1+iri, p10+iri; Distribution of BNNB Cells with 2 NB [1]: 2; Distribution of BNNPB Cells with 1 NPB [1]: 0; Distribution of BNNPB Cells with 2 NPB [1]: 0; Micronuclei (MNi) Mean (BNMN)1000 ± SD [1]: 11.50 ± 3.70 c,p1,p5,p10,g1,g5, g10,p1+iri, p5+iri, p10+iri; Micronuclei (MNi) Mean (MNi)1000 ± SD [1]: 11.75 ± 4.11 c,p1,p5,p10,g1,g5,g10, p1+iri; Micronuclei (MNi) Total (BNMN)4000 [1]: 46 c,p1,p5,p10,g1,g5,g10, p1+iri, p5+iri, p10+iri; Micronuclei (MNi) Total (MNi)4000 [1]: 47 c,p1,p5,p10,g1,g5, g10,p1+iri; Nuclear Buds (NBs) Mean (BNNB)1000 ± SD [1]: 8.75 ± 0.96 c,p1,p5,p10, g1,g5,g10, p1+iri,p5+iri, p10+iri; Nuclear Buds (NBs) Mean (NBs)1000 ± SD [1]: 9.25 ± 1.50 c,p1,p5,p10,g1,g5,g10, p1+iri,p5+iri, p10+iri; Nuclear Buds (NBs) Total (BNNB)4000 [1]: 35 c,p1,p5,p10, g1,g5,g10, p1+iri,p5+iri,p10+iri; Nuclear Buds (NBs) Total (NBs)4000 [1]: 37 c,p1,p5, p10,g1,g5, g10, p1+iri, p5+iri, p10+iri; Nucleoplasmic Bridges (NPBs) Mean (BNNPB)1000 ± SD [1]: 0; Nucleoplasmic Bridges (NPBs) Mean (NPBs)1000 ± SD [1]: 0; Nucleoplasmic Bridges (NPBs) Total (BNNPB)4000 [1]: 0; Nucleoplasmic Bridges (NPBs) Total (NPBs)4000 [1]: 0; Micronuclei (MNi) Mean (MNi)1000 ± SD (1× + IRI 9.0 mg/L, propolis 1.36 mg/L, galangin 0.02 mg/L, listed as galangin): 11.75; Distribution of BNMN Cells with 1 MN [2]: 8; Distribution of BNMN Cells with 2 MN [2]: 0; Distribution of BNMN Cells with 3 MN [2]: 0; Distribution of BNMN Cells with 4 MN [2]: 0; Distribution of BNNB Cells with 1 NB [2]: 7; Distribution of BNNB Cells with 2 NB [2]: 0; Distribution of BNNPB Cells with 1 NPB [2]: 0; Distribution of BNNPB Cells with 2 NPB [2]: 0; Micronuclei (MNi) Mean (BNMN)1000 ± SD [2]: 2.00 ± 0.82; Micronuclei (MNi) Mean (MNi)1000 ± SD [2]: 2.00 ± 0.82; Micronuclei (MNi) Total (BNMN)4000 [2]: 8; Micronuclei (MNi) Total (MNi)4000 [2]: 8; Nuclear Buds (NBs) Mean (BNNB)1000 ± SD [2]: 1.75 ± 0.50; Nuclear Buds (NBs) Mean (NBs)1000 ± SD [2]: 1.75 ± 0.50; Nuclear Buds (NBs) Total (BNNB)4000 [2]: 7; Nuclear Buds (NBs) Total (NBs)4000 [2]: 7; Nucleoplasmic Bridges (NPBs) Mean (BNNPB)1000 ± SD [2]: 0; Nucleoplasmic Bridges (NPBs) Mean (NPBs)1000 ± SD [2]: 0; Nucleoplasmic Bridges (NPBs) Total (BNNPB)4000 [2]: 0; Nucleoplasmic Bridges (NPBs) Total (NPBs)4000 [2]: 0; Micronuclei (MNi) Mean (MNi)1000 ± SD (1× alone, propolis 1.36 mg/L, galangin 0.02 mg/L, listed as galangin): 2.00; Distribution of BNMN Cells with 1 MN [3]: 43 c,p1,p5, p10,g1,g5, g10,p1+iri, p5+iri, p10+iri; Distribution of BNMN Cells with 2 MN [3]: 1; Distribution of BNMN Cells with 3 MN [3]: 0; Distribution of BNMN Cells with 4 MN [3]: 0; Distribution of BNNB Cells with 1 NB [3]: 32 c,p1,p5, p10,g1, g5,g10, p1+iri, p10+iri; Distribution of BNNB Cells with 2 NB [3]: 0; Distribution of BNNPB Cells with 1 NPB [3]: 0; Distribution of BNNPB Cells with 2 NPB [3]: 0; Micronuclei (MNi) Mean (BNMN)1000 ± SD [3]: 11.00 ± 0.82 c,p1,p5,p10,g1,g5, g10,p1+iri, p5+iri; Micronuclei (MNi) Mean (MNi)1000 ± SD [3]: 11.25 ± 0.96 c,p1,p5,p10,g1,g5,g10, p1+iri; Micronuclei (MNi) Total (BNMN)4000 [3]: 44 c,p1,p5,p10,g1,g5,g10, p1+iri, p5+iri; Micronuclei (MNi) Total (MNi)4000 [3]: 45 c,p1,p5,p10,g1,g5, g10,p1+iri; Nuclear Buds (NBs) Mean (BNNB)1000 ± SD [3]: 8.00 ± 1.41 c,p1,p5,p10, g1,g5,g10, p1+iri,p10+iri; Nuclear Buds (NBs) Mean (NBs)1000 ± SD [3]: 8.00 ± 1.41 c,p1,p5,p10,g1,g5,g10, p1+iri,p10+iri; Nuclear Buds (NBs) Total (BNNB)4000 [3]: 32 c,p1,p5,p10, g1,g5,g10, p1+iri, p10+iri; Nuclear Buds (NBs) Total (NBs)4000 [3]: 32 c,p1,p5, p10,g1,g5, g10, p1+iri, p10+iri; Nucleoplasmic Bridges (NPBs) Mean (BNNPB)1000 ± SD [3]: 0; Nucleoplasmic Bridges (NPBs) Mean (NPBs)1000 ± SD [3]: 0; Nucleoplasmic Bridges (NPBs) Total (BNNPB)4000 [3]: 0; Nucleoplasmic Bridges (NPBs) Total (NPBs)4000 [3]: 0; Micronuclei (MNi) Mean (MNi)1000 ± SD (5× + IRI 9.0 mg/L, propolis 6.8 mg/L, galangin […], listed as galangin): 11.25; Distribution of BNMN Cells with 1 MN [4]: 9; Distribution of BNMN Cells with 2 MN [4]: 0; Distribution of BNMN Cells with 3 MN [4]: 0; Distribution of BNMN Cells with 4 MN [4]: 0; Distribution of BNNB Cells with 1 NB [4]: 9; Distribution of BNNB Cells with 2 NB [4]: 0; Distribution of BNNPB Cells with 1 NPB [4]: 0; Distribution of BNNPB Cells with 2 NPB [4]: 0; Micronuclei (MNi) Mean (BNMN)1000 ± SD [4]: 2.25 ± 0.50; Micronuclei (MNi) Mean (MNi)1000 ± SD [4]: 2.25 ± 0.50; Micronuclei (MNi) Total (BNMN)4000 [4]: 9; Micronuclei (MNi) Total (MNi)4000 [4]: 9; Nuclear Buds (NBs) Mean (BNNB)1000 ± SD [4]: 2.25 ± 0.96; Nuclear Buds (NBs) Mean (NBs)1000 ± SD [4]: 2.25 ± 0.96; Nuclear Buds (NBs) Total (BNNB)4000 [4]: 9; Nuclear Buds (NBs) Total (NBs)4000 [4]: 9; Nucleoplasmic Bridges (NPBs) Mean (BNNPB)1000 ± SD [4]: 0; Nucleoplasmic Bridges (NPBs) Mean (NPBs)1000 ± SD [4]: 0; Nucleoplasmic Bridges (NPBs) Total (BNNPB)4000 [4]: 0; Nucleoplasmic Bridges (NPBs) Total (NPBs)4000 [4]: 0; Micronuclei (MNi) Mean (MNi)1000 ± SD (5× alone, propolis 6.8 mg/L, galangin […], listed as galangin): 2.25; Distribution of BNMN Cells with 1 MN [5]: 44 c,p1,p5, p10,g1,g5, g10,p1+iri, p5+iri, p10+iri; Distribution of BNMN Cells with 2 MN [5]: 5; Distribution of BNMN Cells with 3 MN [5]: 0; Distribution of BNMN Cells with 4 MN [5]: 0; Distribution of BNNB Cells with 1 NB [5]: 30 c,p1,p5, p10,g1,g5,g10, p1+iri; Distribution of BNNB Cells with 2 NB [5]: 0; Distribution of BNNPB Cells with 1 NPB [5]: 0; Distribution of BNNPB Cells with 2 NPB [5]: 0; Micronuclei (MNi) Mean (BNMN)1000 ± SD [5]: 12.25 ± 0.82 c,p1,p5,p10,g1,g5, g10,p1+iri, p5+iri, p10+iri; Micronuclei (MNi) Mean (MNi)1000 ± SD [5]: 13.50 ± 1.29 c,p1,p5,p10,g1,g5,g10, p1+iri, p5+iri, p10+iri; Micronuclei (MNi) Total (BNMN)4000 [5]: 49 c,p1,p5,p10,g1,g5,g10, p1+iri, p5+iri, p10+iri; Micronuclei (MNi) Total (MNi)4000 [5]: 54 c,p1,p5,p10,g1,g5, g10,p1+iri, p5+iri, p10+iri; Nuclear Buds (NBs) Mean (BNNB)1000 ± SD [5]: 7.50 ± 1.29 c,p1,p5,p10, g1,g5,g10, p1+iri; Nuclear Buds (NBs) Mean (NBs)1000 ± SD [5]: 7.50 ± 1.29 c,p1,p5,p10,g1,g5,g10,p1+iri; Nuclear Buds (NBs) Total (BNNB)4000 [5]: 30 c,p1,p5,p10, g1,g5,g10, p1+iri; Nuclear Buds (NBs) Total (NBs)4000 [5]: 30 c,p1,p5, p10,g1,g5, g10,p1+iri; Nucleoplasmic Bridges (NPBs) Mean (BNNPB)1000 ± SD [5]: 0; Nucleoplasmic Bridges (NPBs) Mean (NPBs)1000 ± SD [5]: 0; Nucleoplasmic Bridges (NPBs) Total (BNNPB)4000 [5]: 0; Nucleoplasmic Bridges (NPBs) Total (NPBs)4000 [5]: 0; Micronuclei (MNi) Mean (MNi)1000 ± SD (10× + IRI 9.0 mg/L, propolis 13.6 mg/L, galangin 0.22 mg/L, listed as galangin): 13.50; Distribution of BNMN Cells with 1 MN [6]: 7; Distribution of BNMN Cells with 2 MN [6]: 0; Distribution of BNMN Cells with 3 MN [6]: 0; Distribution of BNMN Cells with 4 MN [6]: 0; Distribution of BNNB Cells with 1 NB [6]: 9; Distribution of BNNB Cells with 2 NB [6]: 0; Distribution of BNNPB Cells with 1 NPB [6]: 0; Distribution of BNNPB Cells with 2 NPB [6]: 0; Micronuclei (MNi) Mean (BNMN)1000 ± SD [6]: 1.75 ± 0.50; Micronuclei (MNi) Mean (MNi)1000 ± SD [6]: 1.75 ± 0.50; Micronuclei (MNi) Total (BNMN)4000 [6]: 7; Micronuclei (MNi) Total (MNi)4000 [6]: 7; Nuclear Buds (NBs) Mean (BNNB)1000 ± SD [6]: 2.25 ± 0.50; Nuclear Buds (NBs) Mean (NBs)1000 ± SD [6]: 2.25 ± 0.50; Nuclear Buds (NBs) Total (BNNB)4000 [6]: 9; Nuclear Buds (NBs) Total (NBs)4000 [6]: 9; Nucleoplasmic Bridges (NPBs) Mean (BNNPB)1000 ± SD [6]: 0; Nucleoplasmic Bridges (NPBs) Mean (NPBs)1000 ± SD [6]: 0; Nucleoplasmic Bridges (NPBs) Total (BNNPB)4000 [6]: 0; Nucleoplasmic Bridges (NPBs) Total (NPBs)4000 [6]: 0; Micronuclei (MNi) Mean (MNi)1000 ± SD (10× alone, propolis 13.6 mg/L, galangin 0.22 mg/L, listed as galangin): 1.75
